Reference: paper PMC11240139, “Exploring the antitumor potential of novel quinoline derivatives via tubulin polymerization inhibition in breast cancer; design, synthesis and molecular docking” (RSC Advances, 2024)
Entries after “also recorded” stand apart in the source; their conditions may differ.

Legend:
Format in all cases: cell-based
[1] = system: β-tubulin mRNA in MDA-MB-231 cells; experiment: Tubulin expression assay (real-time PCR); details: MDA-MB-231, IC50 dose, 48 h, normalized to β-actin
Description: The cells were seeded in a six-well plate at a concentration of 3 × 10^5 cells per well. […] The cells were washed, collected and centrifuged at 2500 rpm for 15 min at 4 °C. The total RNA isolation kit (RNeasy extraction kit – QIAGEN) was used to isolate RNA according to the manufacturer's instructions.
Gene expression of β-tubulin was determined using iScript One-Step RT-PCR kit with SYBR Green (BIORAD) according to the manufacturer protocol. Primers sequences used for qPCR are illustrated in (Table 5). The genes expression was normalized to β-actin as the housekeeping gene. The protocol used was cDNA synthesis for 10 min at 50 °C, iScript Reverse transcriptase inactivation for 5 min at 95 °C and PCR cycling and detection (30 to 45 cycles): 10 s at 95 °C and 30 s at 55 °C to 60 °C.

MDA-MB-231 cells [2] = experiment: Cell apoptosis analysis (annexin V-FITC/PI); details: MDA-MB-231, IC50 dose, 24 h
Description: Annexin-V-FITC Apoptosis Detection Kit (Biovision, USA) was used to determine apoptotic cells according to manufacturer's instructions. Briefly, MDA-MB 231 cells (2 × 10^5 cells) were seeded in 6-well plates and cultured for 24 h. […] Cells were collected, washed with PBS and centrifuged. The cells were re-suspended in 500 μL of 1× binding buffer. 5 μL of annexin V-FITC and 5 μL of propidium iodide (PI […]) were added and the cells were incubated in the dark at room temperature for 5 min. The fluorescence of the stained cells was analyzed by flow cytometry using FACSCalibur (BD Biosciences, Mountain View, CA). The data were analyzed using the CellQuest software (BD Biosciences).[53,54]

MDA-MB-231 cells [3] = experiment: Cell cycle analysis by flow cytometry (PI); details: MDA-MB-231, IC50 dose, 24 h; control 10.42%
Description: Propidium Iodide Flow Cytometry Kit for Cell Cycle Analysis (Abcam) was used according to manufacturer's instructions. Briefly, MDA-MB 231 cells (2 × 10^5 cells) were seeded in 6-well plates and cultured for 24 h. […] Cells were collected, washed with PBS and centrifuged. Subsequently, the cells were re-suspended and fixed in 66% ethanol on ice for at least 2 h. The cells were stained with a working solution containing propidium iodide (PI) in the dark at 37 °C for 30 min. DNA content of the cells were measured by flow cytometry using FACSCalibur (BD Biosciences, Mountain View, CA). The data were analyzed using the CellQuest software (BD Biosciences).[21]

**Q.** Which results are given for `CCc1cccc2cc(-c3cc(-c4cc(OC)c(OC)c(OC)c4)[nH]c(=O)c3C#N)c(Cl)nc12` [Compound 4c, 4-(2-Chloro-8-ethylquinolin-3-yl)-2-oxo-6-(3,4,5-trimethoxyphenyl)-1,2-dihydropyridine-3-carbonitrile]?
**A.** β-tubulin mRNA levels (relative gene expression) vs non-treated cells [1]: notably reduced; also recorded: significantly suppressed; also recorded: markedly reduced; Early Apoptosis (%) (MDA-MB-231 cells [2]): 7.44 ± 1.59%; Late Apoptosis (%) (MDA-MB-231 cells [2]): 17.1 ± 1.9%; Necrosis (%) (MDA-MB-231 cells [2]): 4.61 + 2%; cells population at G2 and M phases (MDA-MB-231 cells [3]): 22.84%
